Test results as given in ChEMBL document CHEMBL1124467, “The binding of benzenesulfonamides to carbonic anhydrase enzyme. A molecular mechanics study and quantitative structure-activity relationships” (J Med Chem, 1989).

species on record: Bos taurus; experiment: Inhibitory activity against bovine erythrocyte B enzyme

| Log II50 | SMILES |
| --- | --- |
| 0.88 | NS(=O)(=O)c1ccccc1Cl |
| 1.32 | CC(=O)c1ccc(S(N)(=O)=O)cc1 |
| 1 | NS(=O)(=O)c1cccc(Cl)c1 |

target: T1, Carbonic anhydrase (Bos taurus) (UniProt P00921+Q95323+P18915+Q3SZX4); experiment: Inhibitory activity against Carbonic anhydrase; format: protein assay

| Log II50 | SMILES |
| --- | --- |
| 2.13 | NS(=O)(=O)c1ccc(Cl)c([N+](=O)[O-])c1 |

target: T1, Carbonic anhydrase (Bos taurus)
Description: Inhibitory activity against bovine Carbonic anhydrase

| SMILES | Log II50 |
| --- | --- |
| NS(=O)(=O)c1ccc([N+](=O)[O-])c(Cl)c1 | 1.74 |
| NS(=O)(=O)c1ccccc1 | 0.58 |
| Cc1cccc(S(N)(=O)=O)c1 | 0.66 |
| NS(=O)(=O)c1cccc([N+](=O)[O-])c1 | 1.25 |
| Cc1ccccc1S(N)(=O)=O | 0.16 |
| Cc1ccc(S(N)(=O)=O)cc1C | 0.48 |
| NS(=O)(=O)c1ccc(Cl)c(Cl)c1 | 1.76 |

The remaining lines, values ahead:

| Log II50 | SMILES |
| --- | --- |
| 1.48 | CC(=O)Nc1ccc(S(N)(=O)=O)cc1 |
| 0.78 | Cc1ccc(S(N)(=O)=O)cc1 |
| 0.18 | CNc1ccc(S(N)(=O)=O)cc1 |
| 0.71 | COc1ccc(S(N)(=O)=O)cc1 |
| 1.08 | NS(=O)(=O)c1ccc(Cl)cc1 |
